Read-outs that look alike come from different tables or passages of the source.
Columns and labels:
[1] = system: primary aggregation of platelets by ADP; experiment: Inhibitory activity to the (primary) platelet aggregation induced by ADP, aggregation meter, rat PRP; format: cell-based; details: average of 5 cases
Experimental: (a) Inhibitory activity to the platelet aggregation induced by ADP (adenosine diphosphate)
(§1) With a siliconized injection syringe wetted with heparin, a blood sample was taken from the descending artery of a rat and centrifuged at 4° C. and 1,000 r.p.m. for 10 minutes to obtain a platelet-rich plasma (PRP). The test drug solutions were prepared as follows. The test drug was dissolved in 0.02 M Tris-HCl buffer containing 1% of dimethylformamide and isotonicated with sodium (pH 7.4). To 0.4 ml of the above PRP was added 3.0 ml of the test drug solution, followed by the addition of 0.1 ml of 10^-4 M ADP. The resultant aggregation of platelets was measured with an aggregation meter [Nippon Bunko Medical K.K.]. The activity of the test drug was first assayed by determining the primary aggregation inhibitory effect in terms of inhibition rate (%) in relation to the maximum light transmittance of control PRP which is altered by ADP.
The inhibition rates shown are each an average of 5 cases.

[2] = system: ADP-induced platelet aggregation; experiment: Inhibitory activity to the ADP-induced platelet aggregation measured by the platelet-counting-method, rat PRP; format: cell-based; details: platelet counting (Coulter Counter)
Experimental: (b) Inhibitory activity to the ADP-induced platelet aggregation measured by the platelet-counting-method.
The test drug was dissolved in Na-isotonic 0.02 M Tris-HCl buffer (pH 7.4) containing 1% of dimethylformamide and to 1.5 ml of the test drug solution was added 0.5 ml of the rat-PRP. The mixture was incubated at 37° C. for one minute, followed by the addition of 1 ml of 5×10^-5 M-ADP-physiological saline, and further incubated for 45 seconds. To the solvent as mentioned above was added rat-PRP of the same volume as above. The mixture was incubated at 37° C. for one minute, which was used as the control preparation.
The rate of non-aggregation (inhibitory rate of aggregation) was assayed against the control by counting the number of the platelets in each sample as a single platelet by means of Coulter Counter and by determining the number of the platelets after the addition of ADP as non-aggregated platelets.

[3] = system: platelet aggregation by ADP; experiment: Platelet aggregation inhibitory activity after oral administration to rats (blood sampled one hour after dosing); format: in vivo; details: rat
Experimental: as §1
(2) The platelet aggregation inhibitory activity of Compound (I) (oral administration)
In one hour after oral administration of the test drug to rats, a blood sample was taken from each of the tested rats and the inhibition rate was assayed in accordance with the procedure as mentioned above (1)-a).

mice = details: mouse, in vivo
Excerpt: (3) The toxicity of compound (I)

[4] = system: thrombocyte (platelet) aggregation; experiment: Inhibition activity of platelet aggregation in mammalian blood (general statement)

Row | SMILES | Rate of inhibition of the primary aggregation of platelets by ADP ([1]; 1.0 × 10^-4 mol. conc.) [%] | Rate of inhibition of the primary aggregation of platelets by ADP ([1]; 2.5 × 10^-4 mol. conc.) [%] | Rate of inhibition of the primary aggregation of platelets by ADP ([1]; 5.0 × 10^-4 mol. conc.) [%] | Rate of inhibition of the aggregation ([2]; 0.5 × 10^-4 mol. conc.) [%] | Rate of inhibition of the aggregation ([2]; 1 × 10^-4 mol. conc.) [%] | Rate of inhibition of the aggregation ([2]; 5 × 10^-4 mol. conc.) [%] | Rate of inhibition of the platelet aggregation by ADP ([3]; 50 mg/kg body weight) [%] | Rate of inhibition of the platelet aggregation by ADP ([3]; 100 mg/kg body weight) [%] | Rate of inhibition of the primary aggregation of platelets by ADP ([1]; 0.5 × 10^-4 mol. conc.) [%] | Rate of inhibition of the primary aggregation of platelets by ADP ([1]; 0.75 × 10^-4 mol. conc.) [%] | Rate of inhibition of the platelet aggregation by ADP ([3]; 5 mg/kg body weight) [%] | Rate of inhibition of the platelet aggregation by ADP ([3]; 10 mg/kg body weight) [%] | Rate of inhibition of the platelet aggregation by ADP ([3]; 25 mg/kg body weight) [%] | toxic reactions (mice; ip, 100 mg/kg) | toxic reactions (mice; po, 300 mg/kg) | inhibition activity of thrombocyte (platelet) aggregation [4]
1 | CC(=O)Oc1ccccc1C(=O)O [Aspirin] | 10.6 | 28.8 | 60.4 | 6.51 ± 1.86 | -15.81 ± 5.65 | -7.11 ± 0.98 | 0 | 4.3 |  |  |  |  |  |  |  | 
2 | CCOC(=O)COc1ccc2c(C)c(CCN(CC)CC)c(=O)oc2c1 [Carbochromen] |  |  |  | 5.12 ± 2.20 | 12.75 ± 2.26 | 15.95 ± 1.87 |  |  |  |  |  |  |  |  |  | 
3 | O=C1c2ccccc2SC12CC2 [Compound (I), 3-oxo-2,3-dihydro[1]benzothiophene-2-spirocyclopropane] | 82.3 | 96.9 | 97.7 | 13.02 ± 2.20 | 16.09 ± 3.14 | 80.98 ± 2.92 | 21.9 |  | 10.9 | 52.4 | -3.6 | 12.7 | 20.0 | nor was any toxic reaction noted | No toxic reactions were elicited | strong inhibition activity
4 | COc1ccc2c(c1)c(CC(=O)O)c(C)n2C(=O)c1ccc(Cl)cc1 [Indomethacin] | 8.0 | 31.5 | 71.4 | 8.18 ± 2.21 | 0.85 ± 0.20 | 64.66 ± 1.76 |  |  |  |  | 12.5 | 12.4 | 11.2 |  |  | 
5 | CC(C(=O)O)c1cccc(C(=O)c2ccccc2)c1 (centres unmarked) [Ketoprofen] | 19.6 | 36.0 | 71.5 |  |  |  | 18.6 |  |  |  |  | 7.2 | 13.5 |  |  | 
